Measurements from US20060069132A1, “Azolecarboxamide herbicides” (priority 2004, published 2006).
Read-outs that look alike come from different tables or passages of the source.

How the values were obtained:
eastern black nightshade = test: Test C pre-/postemergence herbicide test; assay type: in vivo, Solanum ptycanthum; details: preemergence
Description: (§1) Seeds of plant species selected from bermudagrass (Cynodon dactylon (L.) Pers.), Surinam grass (Urochloa decumbens (Staph) R. D. Webster, previously named Brachiaria decumbens Stapf), cocklebur (Xanthium strumarium L.), corn (Zea mays L.), large crabgrass (Digitaria sanguinalis (L.) Scop.), woolly cupgrass (Eriochloa villosa (Thunb.) Kunth), giant foxtail (Setaria faberi Herrm.), goosegrass (Eleusine indica (L.) Gaertn.), johnsongrass (Sorghum halepense (L.) Pers.), kochia (Kochia scoparia (L.) Schrad.), lambsquarters (Chenopodium album L.), morningglory (Ipomoea coccinea L.), eastern black nightshade (Solanum ptycanthum Dunal), yellow nutsedge (Cyperus esculentus L.), pigweed (Amaranthus retroflexus L.), common ragweed (Ambrosia elatior L.), soybean (Glycine max (L.) Merr.), common (oilseed) sunflower (Helianthus annuus L.) and velvetleaf (Abutilon theophrasti Medik.) were planted and treated preemergence with test chemicals formulated in a non-phytotoxic solvent mixture which included a surfactant.
(§2) At the same time, plants selected from these crop and weed species and also winter barley (Hordeum vulgare L.), blackgrass (Alopecurus myosuroides Huds.), canarygrass (Phalaris minor Retz.), chickweed (Stellaria media (L.) Vill.), downy bromegrass (Bromus tectorum L.), green foxtail (Setaria viridis (L.) Beauv.), Italian ryegrass (Lolium multiflorum Lam.), wheat (Triticum aestivum L.), wild oat (Avenafatua L.) and windgrass (Apera spica-venti (L.) Beauv.) were treated with postemergence applications of some of the test chemicals formulated in the same manner. Plants ranged in height from 2 to 18 cm (1- to 4-leaf stage) for postemergence treatments. Plant species in the flooded paddy test consisted of rice (Oryza sativa), smallflower umbrella sedge (Cyperus difformis L.), ducksalad (Heteranthera limosa (Sw.) Willd.) and barnyardgrass (Echinochloa crus-galli (L.) Beauv.) grown to the 2-leaf stage for testing. Treated plants and controls were maintained in a greenhouse for 12 to 14 days, after which time all species were compared to controls and visually evaluated. Plant response ratings, summarized in Table C, are based on a scale of 0 to 100 where 0 is no effect and 100 is complete control. A dash (-) response means no test result.

cocklebur = test: Test C pre-/postemergence herbicide test; assay type: in vivo, Xanthium strumarium; details: for Plant response rating, Cocklebur / Plant response rating (0 = no effect, 100 = complete control), Cocklebur: preemergence
Description: as §1, §2

morningglory [1] = test: Test C pre-/postemergence herbicide test; assay type: in vivo, Ipomoea coccinea; set-up: key to Plant response rating, Morningglory: 0 = no effect, 100 = complete control; details: preemergence
Description: as §1, §2

corn = test: Test C pre-/postemergence herbicide test; assay type: in vivo, Zea mays; details: preemergence
Description: as §1, §2

johnsongrass = test: Test C pre-/postemergence herbicide test; assay type: in vivo, Sorghum halepense; details: preemergence
Description: as §1, §2

Surinam grass = test: Test C pre-/postemergence herbicide test; assay type: in vivo, Urochloa decumbens; details: preemergence
Description: as §1, §2

velvetleaf = test: Test C pre-/postemergence herbicide test; assay type: in vivo, Abutilon theophrasti; details: preemergence; for Plant response rating (0 = no effect, 100 = complete control), Velvetleaf: 125 g ai/ha
Description: as §1, §2

pigweed = test: Test C pre-/postemergence herbicide test; assay type: in vivo, Amaranthus retroflexus; details: preemergence
Description: as §1, §2

morningglory [2] = test: Test A pre-/postemergence herbicide test; assay type: in vivo, Ipomoea spp.; details: for pest or weed control at 125 g/ha / pest or weed control at 500 g/ha: Ipomoea, 240 h, read-out: Morningglory plant response rating; for pest or weed control at 125 g/ha: 125 g ai/ha
Procedure, shortened: (§3)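 Seeds sown in sandy loam received a preemergence directed soil spray of compound in non-phytotoxic solvent with surfactant; postemergence plants (2–10 cm, one- to two-leaf stage) were sprayed to runoff at the same time. After ~10 days in greenhouse, injury was rated visually versus untreated controls (0 = no effect, 100 = complete control).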

redroot pigweed = test: Test A pre-/postemergence herbicide test; assay type: in vivo, Amaranthus retroflexus; details: for pest or weed control at 125 g/ha / pest or weed control at 500 g/ha: Amaranthus retroflexus, 240 h, read-out: Pigweed plant response rating; for pest or weed control at 125 g/ha: 125 g ai/ha
Procedure, shortened: as §3

[3] = 125 g ai/ha, scale 0 (no effect) to 100 (complete control), visual, 12 to 14 days
[4] = 500 g ai/ha, scale 0 to 100 (0 no effect, 100 complete control), visual, 12 to 14 days
[5] = Postemergence, 500 g ai/ha, 0 to 100 scale, 0 no effect, 100 complete control
[6] = Postemergence, 2000 g ai/ha, 0 to 100 scale, 0 no effect, 100 complete control
[7] = Preemergence, 2000 g ai/ha, visual rating, 0 to 100 scale (0 no effect, 100 complete control)
[8] = preemergence, 500 g ai/ha, visual injury, 0 to 100 scale (0 no effect, 100 complete control)
[9] = post-emergence, Postemergence, 0 to 100 scale, 0 no effect, 100 complete control
[10] = post-emergence, Postemergence, 500 g ai/ha, 0 to 100 scale, 0 no effect, 100 complete control
[11] = pre-emergence, preemergence, visual injury, 0 to 100 scale (0 no effect, 100 complete control)
[12] = pre-emergence, preemergence, 500 g ai/ha, visual injury, 0 to 100 scale (0 no effect, 100 complete control)

Structure (SMILES)	Plant response rating, Cocklebur (cocklebur; 62 g ai/ha, scale 0 to 100)	Plant response rating, Cocklebur (cocklebur; 250 g ai/ha, scale 0-100)	Plant response rating, Morningglory (morningglory [1]; 62 g ai/ha, scale 0 to 100)	Plant response rating, Corn (corn; 62 g ai/ha, scale 0 to 100)	Plant response rating, Corn (corn; 250 g ai/ha, scale 0-100)	Plant response rating, Corn (corn; [4])	Plant response rating, Johnsongrass (johnsongrass; 62 g ai/ha, scale 0 to 100)	Plant response rating, Johnsongrass (johnsongrass; 250 g ai/ha, scale 0-100)	Plant response rating, Johnsongrass (johnsongrass; [4])	Plant response rating, Velvetleaf (velvetleaf; 62 g ai/ha, scale 0 to 100)	Plant response rating, Velvetleaf (velvetleaf; 250 g ai/ha, scale 0-100)	Plant response rating, Velvetleaf (velvetleaf; [4])	Plant response rating, Pigweed (pigweed; 62 g ai/ha, scale 0 to 100)	Plant response rating, Pigweed (pigweed; 250 g ai/ha, scale 0-100)	Plant response rating, Pigweed (pigweed; [4])	Plant response rating (0 = no effect, 100 = complete control), Johnsongrass (johnsongrass; 125 g ai/ha)	Plant response rating (0 = no effect, 100 = complete control), Velvetleaf (velvetleaf)	Plant response rating (0 = no effect, 100 = complete control), Pigweed (pigweed; 125 g ai/ha)	Morningglory plant response rating (morningglory [2]; [5])	Plant response rating, Morningglory (morningglory [2]; [6])	other results
CCN(C)C(=O)c1ccc(F)c(NC(=O)C2CC(C(C)(C)C)=NN2CC)c1 (racemic) [Compound 307]	0	35	0	0	30	45	60	90	100	70	100	100	100	100	100	–	–	–	–	–	Plant response rating, Nightshade (eastern black nightshade; 62 g ai/ha, scale 0 to 100): 100; Plant response rating, Nightshade (eastern black nightshade; [3]): 100; Plant response rating, Nightshade (eastern black nightshade; 250 g ai/ha, scale 0-100): 100; Plant response rating, Nightshade (eastern black nightshade; [4]): 100; Plant response rating, Cocklebur (cocklebur; [3]): 30; Cocklebur plant response rating (cocklebur; Preemergence, 500 g ai/ha, scale 0 to 100, 0 no effect, 100 complete control): 75; Plant response rating, Morningglory (morningglory [1]; [3]): 10; Plant response rating, Morningglory (morningglory [1]; 250 g ai/ha, scale 0-100): 10; Plant response rating, Morningglory (morningglory [1]; [4]): 15; Plant response rating, Corn (corn; [3]): 20; Plant response rating, Johnsongrass (johnsongrass; [3]): 80; Plant response rating, Surinam Grass (Surinam grass; 62 g ai/ha, scale 0 to 100): 70; Plant response rating, Surinam Grass (Surinam grass; 250 g ai/ha, scale 0-100): 90; Plant response rating, Surinam Grass (Surinam grass; [4]): 90; Plant response rating, Pigweed (pigweed; [3]): 100
CCC1=NN(C(C)(C)C)CC1C(=O)Nc1cc(C(=O)N(C)C)ccc1F (racemic) [Compound 343]	30	80	5	40	70	80	70	100	100	60	100	100	80	100	100	80	80	90	–	–	Plant response rating, Nightshade (eastern black nightshade; 62 g ai/ha, scale 0 to 100): 60; Plant response rating (0 = no effect, 100 = complete control), Nightshade (eastern black nightshade; 125 g ai/ha): 60; Plant response rating, Nightshade (eastern black nightshade; 250 g ai/ha, scale 0-100): 90; Plant response rating, Nightshade (eastern black nightshade; [4]): 95; Plant response rating (0 = no effect, 100 = complete control), Cocklebur (cocklebur; 125 g ai/ha): 80; Plant response rating, Cocklebur (cocklebur; [4]): 100; Plant response rating (0 = no effect, 100 = complete control), Morningglory (morningglory [1]; 125 g ai/ha): 60; Plant response rating, Morningglory (morningglory [1]; 250 g ai/ha, scale 0-100): 100; Plant response rating, Morningglory (morningglory [1]; [4]): 100; Plant response rating (0 = no effect, 100 = complete control), Corn (corn; 125 g ai/ha): 70; Plant response rating, Surinam Grass (Surinam grass; 62 g ai/ha, scale 0 to 100): 60; Plant response rating (0 = no effect, 100 = complete control), Surinam Grass (Surinam grass; 125 g ai/ha): 85; Plant response rating, Surinam Grass (Surinam grass; 250 g ai/ha, scale 0-100): 100; Plant response rating, Surinam Grass (Surinam grass; [4]): 100
C=Cn1nc(C(C)(C)C)cc1C(=O)Nc1cccc(C(C)=O)c1 [Compound 127]	–	–	–	–	–	–	–	–	–	–	–	–	–	–	–	–	–	–	10	20	Morningglory plant response rating (morningglory [2]; Preemergence, 500 g ai/ha, visual rating, 0 to 100 scale (0 no effect, 100 complete control)): 30; Morningglory plant response rating (morningglory [2]; [7]): 30; Pigweed plant response rating (redroot pigweed; [5]): 40; Plant response rating, Pigweed (redroot pigweed; [6]): 50; Pigweed plant response rating (redroot pigweed; [7]): 50; Pigweed plant response rating (redroot pigweed; [8]): 40
C=CCN(C)C(=O)c1cccc(NC(=O)c2cc(C(C)(C)C)nn2CC)c1 [Compound 285]	–	–	–	–	–	–	–	–	–	–	–	–	–	–	–	–	–	–	40	50	Morningglory plant response rating (morningglory [2]; [7]): 45; Morningglory plant response rating (morningglory [2]; [8]): 25; Pigweed plant response rating (redroot pigweed; [5]): 80; Plant response rating, Pigweed (redroot pigweed; [6]): 100; Pigweed plant response rating (redroot pigweed; [7]): 100; Pigweed plant response rating (redroot pigweed; [8]): 100
CCOC(=O)c1cccc(NC(=O)c2cc(C(C)(C)C)nn2C)n1 [Compound 313]	–	–	–	–	–	–	–	–	–	–	–	–	–	–	–	–	–	–	30	55	Morningglory plant response rating (morningglory [2]; [7]): 55; Morningglory plant response rating (morningglory [2]; [8]): 20; Pigweed plant response rating (redroot pigweed; [5]): 100; Plant response rating, Pigweed (redroot pigweed; [6]): 100; Pigweed plant response rating (redroot pigweed; [7]): 100; Pigweed plant response rating (redroot pigweed; [8]): 95
CCc1nn(C(C)(C)C)nc1C(=O)Nc1cccc(C(=O)N(C)CC)c1 [Compound 384]	–	–	–	–	–	–	100	100	–	100	100	–	100	100	–	100	100	100	–	–	–
Cc1nn(C(C)(C)C)nc1C(=O)Nc1cccc(C(=O)N2CC=CC2)c1 [Compound 393]	0	100	60	55	75	100	95	100	100	65	100	100	90	100	100	100	100	100	–	–	Plant response rating (0 = no effect, 100 = complete control), Cocklebur (cocklebur; 125 g ai/ha): 100; Plant response rating, Cocklebur (cocklebur; [4]): 100
CCNC(=O)c1cccc(NC(=O)c2nc(C(C)(C)C)nn2CC)c1 [Compound 446, 3-(1,1-dimethylethyl)-1-ethyl-N-[3-[(ethylamino)carbonyl]phenyl]-1H-1,2,4-triazole-5-carboxamide]	–	–	–	–	–	–	–	–	–	–	–	–	–	–	–	–	–	–	–	–	pest or weed control at 125 g/ha (morningglory [2]; [9]): 10%; pest or weed control at 500 g/ha (morningglory [2]; [10]): 40%; pest or weed control at 125 g/ha (morningglory [2]; [11]): 10%; pest or weed control at 500 g/ha (morningglory [2]; [12]): 15%; pest or weed control at 125 g/ha (redroot pigweed; [9]): 65%; pest or weed control at 500 g/ha (redroot pigweed; [10]): 80%; pest or weed control at 125 g/ha (redroot pigweed; [11]): 90%; pest or weed control at 500 g/ha (redroot pigweed; [12]): 100%
